According to PubChem BioAssay (NCI):
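Exposure lasted 48 hours, with cells grown in 96-well plates and compounds tested at five concentrations. GI50 = concentration required for 50% inhibition of growth. TGI is the concentration that stops growth completely.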

Legend:
Assay in all cases: growth of human tumour cells (NCI), 48 h
[1] = system: NCI-H226 lung
[2] = system: HS 578T breast
[3] = system: OVCAR-3 ovarian
[4] = system: T-47D breast
[5] = system: M14 melanoma
[6] = system: NCI-H23 lung
[7] = system: OVCAR-5 ovarian
[8] = system: CCRF-CEM leukemia
[9] = system: SK-OV-3 ovarian
[10] = system: U251 CNS

Compound | GI50 [1] [µM] | TGI [1] [µM] | GI50 [2] [µM] | TGI [2] [µM] | GI50 [3] [µM] | TGI [3] [µM] | GI50 [4] [µM] | TGI [4] [µM] | GI50 [5] [µM] | TGI [5] [µM] | GI50 [6] [µM] | TGI [6] [µM] | GI50 [7] [µM] | TGI [7] [µM] | GI50 [8] [µM] | TGI [8] [µM] | GI50 [9] [µM] | TGI [9] [µM] | GI50 [10] [µM] | TGI [10] [µM]
COc1ccc(/C=C2\CCCC3=C2N=C2SC=NN2C3c2ccc(OC)c(OC)c2)cc1OC (stereo not drawn) | 18.5 | 89.2 | 28.2 | > 100 | 4.62 | 75.4 | 5.21 | > 100 | 11.9 | > 100 | 22.4 | > 100 | 47.7 | > 100 | 6.16 | > 100 | 56.4 | > 100 | 22.7 | > 100
O=C(O)C#Cc1ccc([N+](=O)[O-])cc1 | – | > 100 | – | > 100 | – | > 100 | – | > 100 | – | > 100 | – | > 100 | – | > 100 | – | > 100 | – | > 100 | – | > 100
O=C(Nc1cc(Cl)cc(Cl)c1)c1ccc(NC2=C(Cl)C(=O)N(Cc3ccccc3)C2=O)cc1 | 11.5 | 25.1 | 1.99 | 5.49 | 1.99 | 5.37 | 30.9 | > 100 | 9.37 | 24.2 | 4.16 | 16.3 | 4.68 | 17.8 | 3.17 | 12.1 | 22 | 73.7 | 3.04 | 12.8
CCCNNC(=O)c1ccc(CNC(=O)/C=C/c2ccccc2)cc1 | 0.314 | 2.58 | 0.207 | > 20.8 | 0.246 | 1.8 | 0.13 | 0.715 | 0.079 | > 100 | 0.228 | > 23.5 | 0.104 | – | 0.115 | > 100 | 0.134 | 1.47 | 0.198 | 1.71
O=S(=O)(c1ccccc1)C1CN(Cc2ccccc2)CCN(Cc2ccccc2)C1 | – | > 100 | – | > 100 | – | > 95.8 | – | > 100 | – | > 100 | – | > 100 | – | > 100 | – | > 100 | – | > 100 | – | > 100
C(#Cc1ccccc1C#Cc1ccccn1)c1ccc(OCCCCCCOc2ccc(C#Cc3ccccc3C#Cc3ccccn3)cc2)cc1 | 4.33 | 13.3 | 5.79 | 15.7 | 2.31 | 9.16 | 1.52 | 14.1 | 7.47 | 17.6 | 6.45 | 16.2 | 5.93 | 13.8 | 0.0276 | 0.151 | 7.87 | 20.1 | 4.55 | 10.9
Cc1cc(Cl)ccc1Nc1nc(C(F)(F)F)ccc1C(=O)N/N=C/c1ccc(F)cc1 | 2.36 | 7.63 | 2.23 | 11.7 | 0.491 | 2.24 | 1.6 | 7.13 | 1.84 | 9.64 | 2.57 | 11.5 | 2.45 | 15.1 | 0.528 | 5.9 | 1.34 | 6.58 | 1.52 | 10.6
CCN(CC)CCCC(C)Nc1ccnc2cc(Cl)c(SCc3ccccc3)cc12 (stereo not drawn) | 2.71 | 8.48 | 1.97 | 5.73 | 2.31 | 8.07 | 1.98 | 4.77 | 0.189 | 0.351 | 1.55 | 3.57 | 1.73 | 3.7 | 0.442 | 4.94 | 1.93 | 3.69 | 1.08 | 2.39
COC(=O)/C(Br)=C/c1c[nH]c2ccc(Br)cc12 | 14.4 | 33.2 | 1.71 | 17.1 | 16.2 | 66.9 | 11.1 | 24.5 | 11.4 | 25.8 | 15.3 | 33 | 13.6 | 31.3 | 4.87 | 22.8 | 17.7 | 53.9 | 10.2 | 28.6
O=C1C=CC(=O)N1CCCCCCCCCCN1C(=O)C=CC1=O | 17.1 | 34.4 | 16.3 | 56.9 | 4.1 | 15.1 | 15.3 | 40.7 | 6.9 | 20 | 15.6 | 31.6 | 17.4 | 31.6 | 4.05 | > 100 | > 100 | > 100 | 17 | 37.8
N=C1N=Nc2nc(C3(c4nc5n(c4O)C(=N)N=N5)Cc4ccccc4C3=O)c(O)n21 (stereo not drawn) | – | > 100 | – | > 100 | – | > 100 | – | > 100 | – | > 100 | – | > 100 | – | > 100 | – | > 100 | – | > 100 | > 100 | > 100
O=C(Nc1cccc2ccccc12)c1cc2ccccc2cc1O | 2.5 | 9.42 | 1.74 | 6.43 | 2.16 | 6.85 | 2.8 | 18.7 | 3.14 | 20.4 | 1.9 | 8.84 | 3.32 | 13 | 2.91 | 12.1 | 2.5 | 7.55 | 1.56 | 4.72
COc1ccc(/C=C/C(=O)c2ccc(NC(=O)CSc3nnc(-c4cc(OC)c(OC)c(OC)c4)o3)cc2)cc1 | 2.67 | 5.69 | 2.65 | 7.76 | 1.78 | 3.38 | 2.05 | 5.08 | 1.6 | 3.3 | 1.88 | 3.97 | 1.72 | 3.3 | 1.84 | 4.56 | 2.42 | 5.68 | 1.68 | 3.18
CC(=O)/C=C/c1ccc(N(C)Cc2ccc(C(C)(C)C)cc2)cc1 | 149 | 315 | 193 | 568 | 126 | 264 | 47.8 | 405 | 132 | 321 | 87.4 | 550 | 195 | 490 | 164 | 903 | 217 | 709 | 125 | 268
CSc1ccc2c(c1)C(=O)c1c-2n(CCCN=[N+]=[N-])c(=O)c2cc([N+](=O)[O-])ccc12 | 8.74 | > 100 | > 61.1 | > 100 | 8.87 | > 89.5 | 4.58 | > 100 | 1.29 | > 100 | 3.48 | > 100 | > 76.6 | > 100 | 0.239 | 10.9 | 0.861 | > 30.5 | 1.1 | > 100
COc1ccc2cc(C(=O)/C=C/c3ccccc3OC)ccc2c1 | 3.24 | 18.7 | 4.18 | 98.9 | 0.821 | 3.77 | 2.58 | > 89.1 | 4.34 | 25.6 | 5.02 | 23.3 | 18.4 | 49.7 | 1.16 | 7.52 | 12.7 | > 100 | 4.33 | 15.6
COc1ccc(-c2oncc2-c2cc(OC)c3c(c2)OCO3)cc1 | 9.53 | > 93.8 | 2.49 | 21.2 | 3.15 | 39 | 4.29 | > 100 | 2.33 | > 69.6 | 4.94 | > 100 | 5.14 | > 100 | 2.2 | > 43.6 | 3.76 | > 40.4 | 3.8 | > 87.3
Cc1ccc(S(=O)(=O)N2C/C(=C\c3cc(F)cc(F)c3)C(=O)/C(=C/c3cc(F)cc(F)c3)C2)cc1 | 2.42 | – | 0.513 | > 43.1 | 0.408 | 1.27 | 1.77 | 6.59 | 0.429 | 1.72 | 1.14 | 4.14 | 0.713 | 2.28 | 0.0748 | 0.951 | 2.3 | 7.53 | 0.178 | 0.452
Cc1cc(Cl)ccc1Nc1nc(C(F)(F)F)ccc1C(=O)N/N=C/c1c(Cl)cccc1Cl | 0.243 | 1.74 | 0.63 | > 30 | 0.102 | 0.38 | 0.331 | 1.98 | 0.536 | > 100 | 0.489 | > 100 | 0.888 | > 100 | 0.107 | > 100 | 0.486 | 3.29 | 0.245 | > 70.8
COc1cccc(-c2cc(NCc3ccc4c(c3)OCO4)nc(N)n2)c1 | 11.7 | 32.5 | 0.0505 | 27.6 | 0.0409 | 0.988 | 16.9 | 50.6 | 0.0479 | 1.91 | 0.135 | 16.5 | 0.488 | 28.8 | 0.0762 | > 100 | 0.0526 | 0.583 | 0.0552 | 11.2
N=c1c2c(=O)n3c(nc2nc2sc4ccc(Cl)cc4n12)-c1ccccc1Sc1ccccc1-3 | 2.92 | 21.5 | 2.2 | 10.1 | 1.89 | 8.27 | 2.54 | 7.23 | 2.99 | 10.6 | 1.9 | 7.49 | 4.62 | 24 | 2.32 | > 100 | 3.7 | 25.2 | 2.8 | 12.6
CCOC(=O)c1c2c(n3cccc(F)c13)C(=O)c1ncccc1C2=O | 0.51 | 5.11 | 0.0362 | 25.6 | 0.22 | 2.42 | 3.53 | 25.2 | 0.049 | 1.29 | 0.173 | 3.09 | 1.16 | 18.7 | 3.71 | 37.5 | 0.223 | 16.3 | 0.0411 | 1.39
COc1cc2c(cc1C)NC(=O)/C2=C/c1c(C)nc2sc(C)cn12 | 82.8 | > 100 | 49.8 | > 100 | 74.7 | > 100 | 64.4 | > 100 | 44.2 | > 100 | 61.7 | > 100 | > 100 | > 100 | 53.4 | > 100 | > 100 | > 100 | > 100 | > 100
CCN1CCN(Cc2ccc3cc(C(=O)Nc4cc(NC(=O)c5ccc6c(c5)OCCO6)ccc4F)ccc3n2)CC1 | – | 3.45 | 0.0329 | 0.308 | 0.0567 | 0.766 | 0.0451 | 23 | 0.0505 | 11.8 | 0.121 | 5.27 | 0.0858 | 12.5 | 0.118 | 2.54 | 0.0341 | 1.14 | 0.0464 | 11.4
O=C1[C@H](c2ccccc2)C2c3ccccc3CCN12 (stereo partly drawn) | > 100 | > 100 | > 100 | > 100 | > 100 | > 100 | > 100 | > 100 | > 100 | > 100 | > 100 | > 100 | > 100 | > 100 | > 100 | > 100 | > 100 | > 100 | > 100 | > 100
CCNCCNc1cc(C2CCCC2)c(C#N)c2nc3ccccc3n12 | 3.49 | 17.5 | 3.23 | 10.4 | 1.7 | 3.18 | 2.58 | 7.14 | 2.06 | 4.08 | 7.42 | 24.3 | 5.13 | 19.9 | 2.46 | 7.75 | 3.26 | 12.5 | 2.21 | 4.27
